According to patent publication US10836732B2, “Compounds for combating arthropods” (priority 2013, dated 2020):

Columns and labels:
[1] = logP by HPLC on reversed-phase column (C18), EEC Directive 79/831 Annex V.A8; format: physicochemical; settings: HPLC, reversed-phase C18, acetonitrile (0.1% formic acid)/water (0.09% formic acid) gradient
Ctenocephalides felis = Ctenocephalides felis - in vitro contact tests with fleas (CTECFE); format: in vivo; settings: 1 μg/cm^2, adult fleas, after 48 h
Experimental: (§1) For the coating of the test tubes, 9 mg of active ingredient are first dissolved in 1 ml of acetone p.a. and then diluted to the desired concentration with acetone p.a. 250 μl of the solution are distributed homogeneously on the inner walls and base of a test tube (25 ml crimp top vial (Fisher Scientific, Order No. 320 55 60) by turning and rocking on a “Rock ‘n’ Roller” (Model L202, Labinco; rocking rotation at 30 rpm in a fume hood for 2 h). With 900 ppm active ingredient solution and internal surface area 44.7 cm^2, given homogeneous distribution, an area-based dose of 5 μg/cm^2 is achieved.
Preparation examples for the inventive halogen-substituted compounds of the formula (I) are tested for their contact efficiency with ectoparasitic insects (cat fleas here). For this purpose, crimp top vials are coated with 250 μl of an acetone solution of the active ingredient as described above. After the solvent has evaporated off, the tubes are populated with 5-10 fleas (adult Ctenocephalides felis), sealed with a perforated plastic lid and incubated in a horizontal position at room temperature and ambient humidity. After 48 h, efficacy (knockdown and mortality) and mortality are determined To this end, the test tubes are stood upright and the fleas are knocked to the base of the tube. […]

Rhipicephalus sanguineus = Rhipicephalus sanguineus - in vitro contact tests with brown dog ticks (RHIPSA); format: in vivo; settings: 1 μg/cm^2, adult ticks, after 48 h
Experimental: as §1
Preparation examples for the inventive halogen-substituted compounds of the formula (I) are tested for their contact efficiency with ectoparasitic arachnids (brown dog ticks here). For this purpose, crimp top vials are coated with 250 μl of an acetone solution of the active ingredient as described above. […] After 48 h, efficacy (knockdown and mortality) and mortality are determined To this end, the ticks are knocked to the floor of the tube and incubated on a hotplate at 45-50° C. for not more than 5 min Ticks which remain motionless on the floor or move in such an uncoordinated manner that they are unable to deliberately avoid the heat by climbing upwards are considered to be dead or knocked down (moribund).

Amblyomma hebraeum = test: Amblyomma hebaraeum - test (tick nymphs, immersion); format: in vivo; settings: 100 ppm, tick nymphs immersed one minute, after 42 days
Experimental: (§2) Solvent: dimethyl sulphoxide
(§3) To produce an appropriate active ingredient formulation, 10 mg of active ingredient are mixed with 0.5 ml of dimethyl sulphoxide, and the concentrate is diluted with water to the desired concentration.
Tick nymphs (Amblyomma hebraeum) are placed into perforated plastic beakers and immersed in the desired concentration for one minute. The ticks are transferred on filter paper into a Petri dish and stored in a climate-controlled cabinet.
After 42 days, the kill in % is determined 100% means that all of the ticks have been killed; 0% means that none of the ticks have been killed.

[2] = tested on: Boophilus microplus Parkhurst strain, SP-resistant; test: Boophilus microplus - dip test; format: in vivo; settings: 100 ppm, adult engorged female cattle ticks, after 7 days
Experimental: Test animals: cattle ticks (Boophilus microplus) Parkhurst strain, SP-resistant
as §2
10 mg of active ingredient are dissolved in 0.5 ml of dimethyl sulphoxide. For the purpose of producing a suitable formulation, the active ingredient solution is diluted with water to the concentration desired in each case.
This active ingredient formulation is pipetted into tubes. 8-10 adult engorged female cattle ticks (Boophilus microplus) are transferred into a further tube with holes. The tube is immersed into the active ingredient formulation, and all the ticks are completely wetted. After the liquid has run out, the ticks are transferred on filter discs into plastic dishes and stored in a climate-controlled room.
Efficacy is assessed after 7 days by laying of fertile eggs. Eggs which are not visibly fertile are stored in a climate-controlled cabinet until the larvae hatch after about 42 days. An efficacy of 100% means that none of the ticks has laid any fertile eggs; 0% means that all the eggs are fertile.

Lucilia cuprina = Lucilia cuprina - test; format: in vivo; settings: 100 ppm, L1 larvae, after 2 days
Experimental: as §2, §3
About 20 L1 larvae of the Australian sheep blowfly (Lucilia cuprina) are transferred into a test vessel containing minced horsemeat and the active ingredient preparation of the desired concentration.
After 2 days, the kill in % is determined 100% means that all the larvae have been killed; 0% means that none of the larvae have been killed.

Myzus persicae = Myzus persicae - spray test; format: in vivo; settings: 100 g/ha, Chinese cabbage leaf discs, after 6 days
Experimental: Solvent: 78 parts by weight of acetone
(§4) • 1.5 parts by weight of dimethylformamide Emulsifier: alkylaryl polyglycol ether
(§5) To produce an appropriate active ingredient formulation, 1 part by weight of active ingredient is dissolved using the specified parts by weight of solvent and made up with water containing an emulsifier concentration of 1000 ppm until the desired concentration is attained. To produce further test concentrations, the preparation is diluted with emulsifier-containing water.
Discs of Chinese cabbage leaves (Brassica pekinensis) infested by all stages of the green peach aphid (Myzus persicae) are sprayed with an active ingredient formulation of the desired concentration.
After 6 days, efficacy in % is determined. 100% means that all the aphids have been killed; 0% means that none of the aphids have been killed.

Phaedon cochleariae = Phaedon cochleariae - spray test; format: in vivo; settings: 100 g/ha, Chinese cabbage leaf discs, after 7 days
Experimental: (§6) Solvent: 78.0 parts by weight of acetone
as §4, §5
Discs of Chinese cabbage leaves (Brassica pekinensis) are sprayed with an active ingredient formulation of the desired concentration and, after drying, populated with larvae of the mustard beetle (Phaedon cochleariae).
After 7 days, efficacy in % is determined 100% means that all the beetle larvae have been killed; 0% means that no beetle larvae have been killed.

Spodoptera frugiperda = Spodoptera frugiperda - spray test; format: in vivo; settings: 100 g/ha, maize leaf discs, after 7 days
Experimental: as §6, §4, §5
Leaf discs of maize (Zea mays) are sprayed with an active ingredient formulation of the desired concentration and, after drying, populated with caterpillars of the armyworm (Spodoptera frugiperda).
After 7 days, efficacy in % is determined. 100% means that all the caterpillars have been killed; 0% means that no caterpillars have been killed.

[3] = tested on: Anopheles funestus strain FUMOZ-R; test: Anopheles test (ANPHFU surface treatment); format: in vivo; settings: Anopheles funestus, read-out: efficacy (mortality in %)
Experimental: Solvent: acetone+2000 ppm rapeseed oil methyl ester (RME)
To produce an appropriate active ingredient formulation, the active ingredient is dissolved in the solvent (2 mg/ml). The active ingredient formulation is pipetted onto a glazed tile and, after it has dried off, adult mosquitoes of the species Anopheles funestus strain FUMOZ-R (Hunt et al., Med Vet Entomol. 2005 September; 19(3):271-5) are placed onto the treated tile. The exposure time is 30 minutes.
24 hours after contact with the treated surface, mortality in % is determined 100% means that all mosquitoes have been killed; 0% means that none of the mosquitoes have been killed.

For `Cc1cc(C(F)(C(F)(F)F)C(F)(F)F)cc(C)c1-c1cn(-c2ccc(Cl)c(C(=O)NC3CC3)c2)nn1` [I-T48-1, 2-chloro-N-cyclopropyl-5-[4-[2,6-dimethyl-4-[1,2,2,2-tetrafluoro-1-(trifluoromethyl)ethyl]phenyl]triazol-1-yl]benzamide], the chromatographic logP [1] was 4.19, the “efficacy (moribund/knocked down or dead)” value (Ctenocephalides felis) was 100% and the “efficacy (dead or knocked down)” value (Rhipicephalus sanguineus) was 100%. For the same compound, the “efficacy (kill in %)” value (Amblyomma hebraeum) was 100%, the “efficacy (no fertile eggs laid)” value [2] was 100% and the “efficacy (kill in %)” value (Lucilia cuprina) was 100%. For the same compound, the “efficacy (aphids killed)” value (Myzus persicae) was 100%, the “efficacy (beetle larvae killed)” value (Phaedon cochleariae) was 100% and the “efficacy (caterpillars killed)” value (Spodoptera frugiperda) was 100%. For the same compound, the mortality at 100 mg/m2 [3] was 90 to 100%.
